According to patent publication US9486506B2 (Novo Nordisk A/S, priority 2011, dated 2016):
Numbered stars: 1 amine (or outer) side, 2 acyl side, 3 side chain; on linkers, the order of the positions; unused ones are H or OH. Side chains are listed from the residue outwards. Peptide text beside a SMILES is read from it. * marks the point of attachment. X1 = O=C(CCCCCCCCCCCCCCCc1nnn[nH]1)NS(=O)(=O)CCCC(=O)*; γGlu = O=C(O)[C@H](CCC(=O)[*:2])N[*:1]; AEEA = NCCOCCOCC(=O)O

Experiments:
[1] = Assay (X) Chemical stability assessment by RP-UPLC; format: physicochemical; conditions: pH 8.15, 14 days at 37° C. vs 5° C., 333 μM
Description: Chemical Stability Assessment
Lyophilized samples were dissolved in buffer (see below for detailed compositions) to a final concentration of 333 μM and a pH of 8.15, and were incubated for 14 days at 5° C. and 37° C. followed by RP-UPLC analysis. Purity was defined as the area percentage of the main peak in relation to the total area of all integrated peaks in each chromatogram. Purity loss after 14 days at 37° C. was determined as the difference in purity between the samples incubated at 5° C. and 37° C., divided by the purity of the sample after incubation for 14 days at 5° C.
RP-UPLC analysis was performed using a Waters BEH130 2.1 mm×150 mm, 1.7 μm column operated at 50° C. and a flow rate of 0.4 mL/min using a mobile phase system consisting of typically A: 50 mM Phosphate, 10 w/w % Acetonitrile pH 3 and B: 80 v/v Acetonitrile. UV-detection was performed at 215 nm. The typical gradient profile used for most of the samples is shown below.
For some individual analogues eluting at substantially different retention times compared with the majority of analogues, some adjustments to the gradient profile were made to better enable purity assessment comparison across samples. Also the composition of the channel B mobile phase component was in some of the analyses exchanged for a 90 v/v % Acetonitrile solvent solution in an attempt to better handle carry-over of material from one injection to the next in the sequence. This was however compensated for by recalculating the gradient profile appropriately.
Buffer: • 50 mM Dinatriumphosphatdihydrat • 184 mM Propylenglycol • 58 mM Phenol • pH adjusted to 8.15 with H3PO4. In cases where pH was adjusted to 8.15 after re-suspension of analogues, 0.2 M NaOH was used. Assay (XI) Pharmacokinetic Study in Minipigs

[2] = biological target: T1, glucagon receptor (Homo sapiens, UniProt P47871); assay: Assay (I) Glucagon activity (cAMP biosensor, FLIPR); format: cell-based
T1 construct: expressed in transfected cells
T1 sequence (P47871 26-477): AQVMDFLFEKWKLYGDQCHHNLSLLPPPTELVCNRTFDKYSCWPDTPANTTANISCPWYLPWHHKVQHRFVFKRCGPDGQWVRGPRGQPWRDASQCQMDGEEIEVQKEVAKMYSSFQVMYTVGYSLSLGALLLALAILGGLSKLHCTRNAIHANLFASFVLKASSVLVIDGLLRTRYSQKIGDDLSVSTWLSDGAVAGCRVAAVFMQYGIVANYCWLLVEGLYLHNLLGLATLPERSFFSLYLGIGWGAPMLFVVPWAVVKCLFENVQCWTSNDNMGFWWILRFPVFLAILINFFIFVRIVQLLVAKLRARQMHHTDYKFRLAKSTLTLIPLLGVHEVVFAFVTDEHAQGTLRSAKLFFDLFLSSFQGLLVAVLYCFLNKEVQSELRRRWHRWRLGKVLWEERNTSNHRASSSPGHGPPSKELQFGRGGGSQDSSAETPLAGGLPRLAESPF

SMILES | Chemical stability [Purity loss/14 days 37 C.] [1] | EC50 [2]
CC(C)C[C@H](NC(=O)[C@H](CC(=O)O)NC(=O)[C@H](CC(C)C)NC(=O)[C@H](Cc1ccc(O)cc1)NC(=O)[C@H](CCCNC(=N)N)NC(=O)[C@H](CO)NC(=O)[C@H](Cc1ccc(O)cc1)NC(=O)[C@H](CC(=O)O)NC(=O)[C@H](CO)NC(=O)[C@@H](NC(=O)[C@H](Cc1ccccc1)NC(=O)[C@@H](NC(=O)CNC(=O)[C@H](CCC(N)=O)NC(=O)[C@H](CO)NC(=O)[C@@H](N)Cc1c[nH]cn1)[C@@H](C)O)[C@@H](C)O)C(=O)N[C@@H](CCCNC(=N)N)C(=O)N[C@@H](CCCNC(=N)N)C(=O)N[C@@H](C)C(=O)N[C@@H](CCC(N)=O)C(=O)N[C@@H](CC(=O)O)C(=O)N[C@@H](Cc1ccccc1)C(=O)N[C@H](C(=O)N[C@@H](CCCCNC(=O)CC[C@H](NC(=O)CC[C@H](NC(=O)COCCOCCNC(=O)COCCOCCNC(=O)CC[C@H](NC(=O)CCCS(=O)(=O)NC(=O)CCCCCCCCCCCCCCCc1nnn[nH]1)C(=O)O)C(=O)O)C(=O)O)C(=O)N[C@@H](Cc1c[nH]c2ccccc12)C(=O)N[C@@H](CC(C)C)C(=O)N[C@@H](CC(C)C)C(=O)N[C@@H](CO)C(=O)N[C@H](C(=O)O)[C@@H](C)O)C(C)C [Example 67, N^ε24-[(4S)-4-carboxy-4-[[(4S)-4-carboxy-4-[[2-[2-[2-[[2-[2-[2-[[(4S)-4-carboxy-4-[4-[16-(1H-tetrazol-5-yl)hexadecanoylsulfannoyl]butanoylamino]butanoyl]amino]ethoxy]ethoxy]acetyl]amino]ethoxy]ethoxy]acetyl]amino]butanoyl]amino]butanoyl]-[Arg12,Leu16,Lys24,Leu27,Ser28]-Glucagon] (H-HSQGTFTSDYSRYLDLRRAQDFVK([γGlu-γGlu-AEEA-AEEA-γGlu-X1])WLLST-OH) | 7.4% | 0.231 nM
CC[C@H](C)[C@H](NC(=O)[C@H](CC(=O)O)NC(=O)[C@H](CC(C)C)NC(=O)[C@H](Cc1ccc(O)cc1)NC(=O)[C@H](CCCCN)NC(=O)[C@H](CO)NC(=O)[C@H](Cc1ccc(O)cc1)NC(=O)[C@H](CC(=O)O)NC(=O)[C@H](CO)NC(=O)[C@@H](NC(=O)[C@H](Cc1ccccc1)NC(=O)[C@@H](NC(=O)CNC(=O)[C@H](CCC(N)=O)NC(=O)[C@H](CO)NC(=O)[C@@H](N)Cc1c[nH]cn1)[C@@H](C)O)[C@@H](C)O)C(=O)N[C@@H](CCCNC(=N)N)C(=O)N[C@@H](CCCNC(=N)N)C(=O)N[C@@H](C)C(=O)N[C@@H](CCC(N)=O)C(=O)N[C@@H](CC(=O)O)C(=O)N[C@@H](Cc1ccccc1)C(=O)N[C@H](C(=O)N[C@@H](CCCCNC(=O)CC[C@H](NC(=O)CC[C@H](NC(=O)COCCOCCNC(=O)COCCOCCNC(=O)CC[C@H](NC(=O)CCCCCCCCCCCCCCCCC(=O)O)C(=O)O)C(=O)O)C(=O)O)C(=O)N[C@@H](Cc1c[nH]c2ccccc12)C(=O)N[C@@H](CC(C)C)C(=O)N[C@@H](CC(C)C)C(=O)N[C@@H](CO)C(=O)N[C@H](C(=O)O)[C@@H](C)O)C(C)C [Example 11, N^ε24-[(4S)-4-carboxy-4-[[(4S)-4-carboxy-4-[[2-[2-[2-[[2-[2-[2-[[(4S)-4-carboxy-4-(17-carboxyheptadecanoylamino)butanoyl]amino]ethoxy]ethoxy]acetyl]amino]ethoxy]ethoxy]acetyl]amino]butanoyl]amino]butanoyl]-[Ile^16,Lys^24,Leu^27,Ser^28]-Glucagon] | 6.2% | 0.084 nM
CC(C)C[C@H](NC(=O)[C@H](Cc1c[nH]c2ccccc12)NC(=O)[C@H](CCCCNC(=O)CC[C@H](NC(=O)CC[C@H](NC(=O)CC[C@H](NC(=O)CC[C@H](NC(=O)CCCCCCCCCCCCCCCCC(=O)O)C(=O)O)C(=O)O)C(=O)O)C(=O)O)NC(=O)[C@@H](NC(=O)[C@H](Cc1ccccc1)NC(=O)[C@H](CC(=O)O)NC(=O)[C@H](CCC(N)=O)NC(=O)[C@H](C)NC(=O)[C@H](CCCNC(=N)N)NC(=O)[C@H](CCCNC(=N)N)NC(=O)[C@@H](NC(=O)[C@H](CC(=O)O)NC(=O)[C@H](CC(C)C)NC(=O)[C@H](Cc1ccc(O)cc1)NC(=O)[C@H](CCCCN)NC(=O)[C@H](CO)NC(=O)[C@H](Cc1ccc(O)cc1)NC(=O)[C@H](CC(=O)O)NC(=O)[C@H](CO)NC(=O)[C@@H](NC(=O)[C@H](Cc1ccccc1)NC(=O)[C@@H](NC(=O)CNC(=O)[C@H](CCC(N)=O)NC(=O)[C@H](CO)NC(=O)[C@@H](N)Cc1c[nH]cn1)[C@@H](C)O)[C@@H](C)O)C(C)C)C(C)C)C(=O)N[C@@H](CC(C)C)C(=O)N[C@@H](CO)C(=O)N[C@H](C(N)=O)[C@@H](C)O [Example 76, N^ε24-[(4S)-4-carboxy-4-[[(4S)-4-carboxy-4-[[(4S)-4-carboxy-4-[[(4S)-4-carboxy-4-(17-carboxyheptadecanoylamino)butanoyl]amino]butanoyl]amino]butanoyl]amino]butanoyl]-[Val16,Lys24,Leu27,Ser28]-Glucagon amide] | 5.5% | 0.268 nM
CC(C)C[C@H](NC(=O)[C@H](CC(=O)O)NC(=O)[C@H](CC(C)C)NC(=O)[C@H](Cc1ccc(O)cc1)NC(=O)[C@H](CCCNC(=N)N)NC(=O)[C@H](CO)NC(=O)[C@H](Cc1ccc(O)cc1)NC(=O)[C@H](CC(=O)O)NC(=O)[C@H](CO)NC(=O)[C@@H](NC(=O)[C@H](Cc1ccccc1)NC(=O)[C@@H](NC(=O)CNC(=O)[C@H](CCC(N)=O)NC(=O)[C@H](CO)NC(=O)[C@@H](N)Cc1c[nH]cn1)[C@@H](C)O)[C@@H](C)O)C(=O)N[C@@H](CCCNC(=N)N)C(=O)N[C@@H](CCCNC(=N)N)C(=O)N[C@@H](C)C(=O)N[C@@H](CCC(N)=O)C(=O)N[C@@H](CC(=O)O)C(=O)N[C@@H](Cc1ccccc1)C(=O)N[C@H](C(=O)N[C@@H](CCCCNC(=O)CC[C@H](NC(=O)CC[C@H](NC(=O)COCCOCCNC(=O)COCCOCCNC(=O)CCCS(=O)(=O)NC(=O)CCCCCCCCCCCCCCCc1nnn[nH]1)C(=O)O)C(=O)O)C(=O)N[C@@H](Cc1c[nH]c2ccccc12)C(=O)N[C@@H](CC(C)C)C(=O)N[C@@H](CC(C)C)C(=O)N[C@@H](CO)C(=O)N[C@H](C(=O)O)[C@@H](C)O)C(C)C [Example 68, N^ε24-[(4S)-4-carboxy-4-[[(4S)-4-carboxy-4-[[2-[2-[2-[[2-[2-[2-[4-[16-(1H-tetrazol-5-yl)hexadecanoylsulfannoyl]butanoylamino]ethoxy]ethoxy]acetyl]amino]ethoxy]ethoxy]acetyl]amino]butanoyl]amino]butanoyl]-[Arg12, Leu16, Lys24, Leu27,Ser28]-Glucagon] (H-HSQGTFTSDYSRYLDLRRAQDFVK([γGlu-γGlu-AEEA-AEEA-X1])WLLST-OH) | 5.6% | 0.357 nM
CC[C@H](C)[C@H](NC(=O)[C@H](CC(=O)O)NC(=O)[C@H](CC(C)C)NC(=O)[C@H](Cc1ccc(O)cc1)NC(=O)[C@H](CCCCN)NC(=O)[C@H](CO)NC(=O)[C@H](Cc1ccc(O)cc1)NC(=O)[C@H](CC(=O)O)NC(=O)[C@H](CO)NC(=O)[C@@H](NC(=O)[C@H](Cc1ccccc1)NC(=O)[C@@H](NC(=O)CNC(=O)[C@H](CCC(N)=O)NC(=O)[C@H](CO)NC(=O)[C@@H](N)Cc1c[nH]cn1)[C@@H](C)O)[C@@H](C)O)C(=O)N[C@@H](CCCNC(=N)N)C(=O)N[C@@H](CCCNC(=N)N)C(=O)N[C@@H](C)C(=O)N[C@@H](CCC(N)=O)C(=O)N[C@@H](CC(=O)O)C(=O)N[C@@H](Cc1ccccc1)C(=O)N[C@H](C(=O)N[C@@H](CCCCNC(=O)CC[C@H](NC(=O)CC[C@H](NC(=O)CC[C@H](NC(=O)CC[C@H](NC(=O)CCCCCCCCCCCCCCCCC(=O)O)C(=O)O)C(=O)O)C(=O)O)C(=O)O)C(=O)N[C@@H](Cc1c[nH]c2ccccc12)C(=O)N[C@@H](CC(C)C)C(=O)N[C@@H](CC(C)C)C(=O)N[C@@H](CO)C(=O)N[C@H](C(=O)O)[C@@H](C)O)C(C)C [Example 79, N^ε24-[(4S)-4-carboxy-4-[[(4S)-4-carboxy-4-[[(4S)-4-carboxy-4-[[(4S)-4-carboxy-4-(17-carboxyheptadecanoylamino)butanoyl]amino]butanoyl]amino]butanoyl]amino]butanoyl]-[Ile16,Lys24,Leu27,Ser28]-Glucagon] | 3.8% | 0.189 nM
